Here are results for one molecule from US12383527B2, “Methods for treating triple negative breast cancer using salvianolic acid B” (HOWARD UNIVERSITY, priority 2018, dated 2025).

The subject of data set [1] is MDA tumor xenografts. Briefly: Human tumor xenografts in athymic nude mice, tumor weight. It counts as in vivo. The conditions noted are these: Sal-B 80 mg/kg three times per week, intraperitoneal; day 37; mean±SD; untreated control 0.81±0.12 g. How it is done: (§1) Human tumor xenografts in athymic nude mice. […] The animal protocol was approved by the Howard University Animal Care and Use Committee. Four-week-old female athymic nude mice (Nu/Nu) were obtained from Harlan Sprague Dawley (Indianapolis, IN). All mice were provided the Harlan Teklad #2018 Global 18% protein rodent diet and water ad libitum. Mice were housed in temperature-controlled rooms (74±2° F.) with a 12-hour alternating light-dark cycle. MDA cells (3×10^6/50 μL/spot) were subcutaneously injected into the both sides of lower back of mice using a 27-gauge needle. On day 10 after cell implantation, the mice with tumors (˜5 mm in diameter) were randomly divided into Sal-B treated, doxorubicin treated, and untreated groups (five mice per group), and were administrated Sal-B (80 mg/kg, three times per week), doxorubicin (4 mg/kg, every four weeks) and 0.9% saline (50 μl, three times per week), respectively, by intraperitoneal injection for a total of 37 days. […] All mice were sacrificed on day 37.
For orientation: A xenograft is tissue or cells of one species grown in another, often human tumour cells in immunodeficient mice.

The nature of data set [2]: Body weight and side effects of treated mice. In kind it is in vivo. The conditions noted are these: applicant's previous studies. Here is the method:
as §1

The subject of data set [3] is Bcl-xL. Description: Immunohistochemical staining of Bcl-xL in MDA tumor xenografts. It counts as in vivo, athymic nude mice. The conditions noted are these: Sal-B 80 mg/kg three times per week; untreated tumors 11.8±3.0; P<0.05. How it is done:
(§2) Human tumor xenografts in athymic nude mice. […] The animal protocol was approved by the Howard University Animal Care and Use Committee. Four-week-old female athymic nude mice (Nu/Nu) were obtained from Harlan Sprague Dawley (Indianapolis, IN). All mice were provided the Harlan Teklad #2018 Global 18% protein rodent diet and water ad libitum. Mice were housed in temperature-controlled rooms (74±2° F.) with a 12-hour alternating light-dark cycle. MDA cells (3×10^6/50 μL/spot) were subcutaneously injected into the both sides of lower back of mice using a 27-gauge needle. […]
(§3) Immunohistochemical staining was performed as described previously (Hao Y, et al., “Enforced expression of miR-101 inhibits prostate cancer cell growth by modulating the COX-2 pathway in vivo,” Cancer Prev Res (Phila), 2011; 4: 1073-1083). […] For the quantification, ten high-magnification (40×) fields were randomly selected from each slide of tumors and the positive cells were counted. The protein expression was expressed as the average number of positive cells per high magnification field.

The subject of data set [4] is survivin. Description: Immunohistochemical staining of survivin in MDA tumor xenografts. In kind it is in vivo, athymic nude mice. The conditions noted are these: Sal-B 80 mg/kg three times per week; versus untreated group. How it is done: as §2, §3
In data set [5] the test system is glucosylceramide synthase (GCS). Briefly: Western blot of GCS expression in MDA and MCF-7 cells. In kind it is cell-based, human. The conditions noted are these: for GCS protein level (normalized to β-actin): Sal-B 50 μM; for GCS expression, further effect versus 50 μM: Sal-B 100 μM. Here is the method:
The immunohistochemical results were consistent with those from Western blotting (FIG. 7, panel A). Western blot analysis was used to determine the expression of apoptosis-related proteins Bcl-XL, survivin, caspase-3 and caspase-8 (FIG. 7, panel A). β-actin was used as an internal control for Western blotting. The MCD-7 and MDA cells were treated with Sal-B (50 μM and 100 μM) and doxorubicin (0.1 μM and 1 μM), respectively, for 24 hours. Proteins were extracted from the cells with RIPA lysis buffer (Santa Cruz Biotechnology, Santa Cruz, CA) and the protein concentrations were quantified with Bio-Rad protein quantification kit. Whole-cell proteins were separated on 8% SDS-polyacrylamide gel, transferred to the polyvinylidene difluoride membrane (Bio-Rad), and then probed with the indicated primary antibodies overnight at 4° C. Washed blots were then incubated with horseradish peroxidase-conjugated anti-rabbit, anti-mouse, or anti-goat antibody (Santa Cruz Biotechnology), respectively, for one hour at room temperature. Blots were developed and visualized with ECL detection system (Bio-Rad).
To understand the mechanism underlying increased ceramide accumulation, the expression levels of GCS and GM3 synthase were measured by Western blot analysis in MDA and MCF-7 cells treated by various concentrations of Sal-B (FIG. 8). The amount of protein expression was normalized by the expression of the internal control β-actin. […] Sal-B was found effective to down-regulate GCS and GM3 synthase expression in cancer cells.
(In general: Immunoblotting shows a protein as a band on a membrane.)

For data set [6], the system named is ceramides. Description: Ceramide levels in MDA cells by flow cytometry. In kind it is cell-based, human. The conditions noted are these: Sal-B 50 μM, 24 hours. Here is the method:
Ceramide levels were further analyzed with flow cytometry, according to the method described above, through comparison of Sal-B treated and untreated MDA cells. MDA cells were treated with 50 μM and 100 μM of Sal-B, respectively, for 24 hours and ceramide levels were then analyzed by flow cytometry.
Similarly, immunohistochemistry was carried out, as generally described above, to evaluate the expression of ceramides in MDA tumor xenografts (FIG. 9, panel C). The fixed cells were sequentially incubated with anti-ceramide primary antibody (1:100) for 2 hours and PE-labeled secondary antibody (1:200) for 30 minutes, and the ceramide positive cells were counted (FIG. 9, panel B).

Data set [7] has as its system ceramides. Description: Immunohistochemistry of ceramides in MDA tumor xenografts. It counts as in vivo, athymic nude mice. The conditions noted are these: Sal-B 80 mg/kg three times per week; untreated control 2.3±0.7; P<0.05. Here is the method:
as §2
Immunohistochemical staining was performed as described previously (Hao Y, et al., “Enforced expression of miR-101 inhibits prostate cancer cell growth by modulating the COX-2 pathway in vivo,” Cancer Prev Res (Phila), 2011; 4: 1073-1083). […] For the quantification, ten high-magnification (40×) fields were randomly selected from each slide of tumors and the positive cells were counted. The protein expression was expressed as the average number of positive cells per high magnification field. […]

For `O=C(/C=C/c1ccc(O)c2c1[C@H](C(=O)O[C@H](Cc1ccc(O)c(O)c1)C(=O)O)[C@@H](c1ccc(O)c(O)c1)O2)O[C@H](Cc1ccc(O)c(O)c1)C(=O)O` [Sal-B, Salvianolic acid B], the average tumor weight in data set [1] came out at 0.26 ± 0.06 g. In addition, the side effects entry in data set [2] (Sal-B 80 mg/kg three times per week) is given as “no obvious side effects”. The “side effects at higher dosage” value in data set [2] (Sal-B dosage higher than 80 mg/kg three times per week) was “weight loss in some mice”. For the same molecule, the “expression of Bcl-xL in tumors” value in data set [3] is on record as 1.3±0.4 positive cells per high magnif. Moreover, in data set [4], the “survivin level in tumors” value is given as “decreasing”. Also, the “GCS protein level (normalized to β-actin)” value in data set [5] (MCF-7 cells) and in data set [5] (MDA cells) was “sufficient to inhibit GCS protein level” each time. The “GCS expression, further effect versus 50 μM” value in data set [5] (MCF-7 cells) and in data set [5] (MDA cells) was “No further inhibitory effect” throughout. The “ceramide level by flow cytometry” value in data set [6] is “sufficient to enhance the ceramide level”. Also, in data set [7], the “ceramide levels in tumor xenografts (ceramide positive cells counted)” value came out at 9.6±2.4.
